Test results as given in article PMC3006138, “Fexinidazole – A New Oral Nitroimidazole Drug Candidate Entering Clinical Development for the Treatment of Sleeping Sickness” (PLoS Neglected Tropical Diseases, 2010).
Like-named read-outs stand apart in the source and are kept apart here.

What was measured:
[1] = One-electron reduction potential by pulse radiolysis; format: physicochemical
Protocol: One-electron reduction potentials were determined by pulse radiolysis following an established procedure.

[2] = Rat 28-day toxicokinetics; format: in vivo; conditions: plasma, po; for AUC: read-out: AUC within 24 hours post dosing; for half-life: read-out: apparent terminal half-life (converted)
Protocol: In the rat repeated-dose toxicokinetic study, fexinidazole was administered orally by gavage once a day for 28 consecutive days to ten or fifteen Crl:CD (SD)IGS BR rats/sex/group at doses of 50, 200, or 800 mg/kg/day. A control group received the vehicle alone (5% Tween 80/0.5% methocel). Ten animals/sex/group were sacrificed at the end of the treatment period on day 29 or 30 of study. The remaining 5 animals/sex/group in the control and high-dose groups were sacrificed on day 43 at the end of a 2-weeks observation period. Systemic exposure to fexinidazole and its sulfoxide and sulfone metabolites was evaluated in three additional animals/sex/group. Samples were taken at predose, and 30 min, 1, 2, 4, 8 and 24 h after dosing on days 1, 14, and 28, and in addition at 48 and 72 h after treatment on day 28.
Toxicokinetic Report for the study No. 0504-2007
SD Standard deviation of the mean […]
t1/2,z Terminal half-life tmax Time to peak plasma concentration
ULOQ Upper limit of quantification
The study was conducted according to the study protocol and related amendment.
Fexinidazole was orally given by gavage once a day for 28 days to male and female Sprague Dawley rats according to the following scheme
Fexinidazole was suspended with 5% Tween 80 in 0.5% Methyl cellulose 400 cP.
6.2. Sample Collection and Handling
Blood samples (about 0.25 mL/sampling time) were withdrawn from retro-orbital sinus plexus under isofluorane anesthesia and put in heparinized plastic tubes kept on a ice-water bath, then centrifuged for 10 min at 1200g at +4°C and two aliquots of about 50 μL of plasma were stored in a freezer at -80°C until analysis. Blood was taken from three rats/gender/dose on Days 1 and 14 at pre-dose and 0.5, 1, 2, 4, 8 and 24 hours after dosing, on Day 28 at pre-dose and 1, 2, 4, 8, 24, 48 and 72 hours after dosing. After the administration of the vehicle, the samples were taken from three rats/gender at pre-dose and […]
6.3. Bioanalytical Method
Rat plasma concentrations of Fexinidazole and its sulfoxide (M1) and sulfone (M2) metabolites were determined by a validated LC/MS/MS method. The calibration range for the assay was 5-1000 ng/mL for Fexinidazole and 25-25000 ng/mL for M1 and M2.
Study samples containing analytes concentrations above the upper limit of quantitation were diluted with blank matrix prior to analysis.
6.4. Pharmacokinetic Calculations
Pharmacokinetic evaluation was carried out using non-compartmental approach with the aid […]
Excel spreadsheet (Microsoft Inc., Seattle, USA). […]
In the calculations, the undetectable concentrations between detectable ones were ignored.
After each dose level, Cmax and tmax of Fexinidazole and sulfoxide and sulfone metabolites […]
linear trapezoidal rule up to the last detectable concentration. On Day 28, since the blood […]
24 hours post dosing was calculated and denoted AUC0-24. This AUC was calculated in order to compare AUC values on Day 28 to those on Day 1 and Day 14. On Day 28, in addition, the half-life of the terminal phase, t1/2,z, was determined by linear regression analysis of the natural-log concentration vs. time curve, where t1/2,z = ln(2)/slope of the regression line.
Fexinidazole and metabolites accumulation ratios, based on Cmax (RA,Cmax), AUC0-24 (RA,AUC0-24) and AUC0-t(last) (RA,AUC0-t(last)), were calculated as the ratio between the parameters obtained on Day 14 and Day 28 to the corresponding one at Day 1. […]
pharmacokinetic parameters of each compound sorted by dose, gender and day of dosing. […]
compound are reported in Tables 1 and 2, whilst individual and mean parameters of each […]
Individual and mean (±SD, CV%) plasma
2A1 - 19A1 of Appendix 1. Individual plasma concentrations of Fexinidazole and both metabolites are plot in Figures 1 - 9, whilst the mean concentrations are plot in Figures 10 - 15. Mean normalized Cmax and AUC0-t(last) values of Fexinidazole and metabolites vs. dose are plot in Figures 16 - 21.
In-study bioanalytical validation data are reported in Appendix 2. All analytical batches met […]

[3] = Sprague Dawley (Crl:CD (SD)IGS BR), 50 mg/kg/day, Day 28, female
[4] = Sprague Dawley (Crl:CD (SD)IGS BR), 50 mg/kg/day, Day 28, male
[5] = Sprague Dawley (Crl:CD (SD)IGS BR), 200 mg/kg/day, Day 28, female
[6] = Sprague Dawley (Crl:CD (SD)IGS BR), 200 mg/kg/day, Day 28, male
[7] = Sprague Dawley (Crl:CD (SD)IGS BR), 800 mg/kg/day, Day 28, female (n=2)
[8] = Sprague Dawley (Crl:CD (SD)IGS BR), 800 mg/kg/day, Day 28, male
[9] = Sprague-Dawley (Crl:CD (SD)IGS BR), 50 mg/kg/day, 50 mg/kg/day po, day 1
[10] = Sprague-Dawley (Crl:CD (SD)IGS BR), 50 mg/kg/day, 50 mg/kg/day po, day 14
[11] = Sprague-Dawley (Crl:CD (SD)IGS BR), 200 mg/kg/day, 200 mg/kg/day po, day 1
[12] = both sexes, Sprague-Dawley (Crl:CD (SD)IGS BR), 200 mg/kg/day, 200 mg/kg/day po, day 14
[13] = both sexes, Sprague-Dawley (Crl:CD (SD)IGS BR), 800 mg/kg/day, 800 mg/kg/day po, day 1
[14] = both sexes, Sprague-Dawley (Crl:CD (SD)IGS BR), 800 mg/kg/day, 800 mg/kg/day po, day 14

For Cn1c([N+](=O)[O-])cnc1COc1ccc([S+](C)[O-])cc1 (stereo not shown) [Fexinidazole sulfoxide], the “single electron redox potential” value [1] was −493 mV, the AUC [2, 3] was 53.8 ± 15.7 µg·h/mL and the half-life [2, 3] was 6.1 ± 3.8 h. The AUC [2, 4] was 29.5 ± 8.92 µg·h/mL, the half-life [2, 4] was 5 ± 2 h and the AUC [2, 5] was 138 ± 14.2 µg·h/mL. It also gave a half-life [2, 5] of 8.1 ± 3.1 h, an AUC [2, 6] of 122 ± 29.3 µg·h/mL and a half-life [2, 6] of 6.3 ± 2.9 h. The AUC [2, 7] was 292 ± 40.3 µg·h/mL, the half-life [2, 7] was 8.6 ± 2.3 h and the AUC [2, 8] was 130 ± 56.8 µg·h/mL. For the same compound, the half-life [2, 8] was 6.6 ± 4.1 h, the Cmax [2, 9] was 2700 ± 1400 ng/mL and the Tmax [2, 9] was 2.5 ± 1.22 h. The AUC(0-t) ([2]; Sprague-Dawley (Crl:CD (SD)IGS BR), 50 mg/kg/day, 50 mg/kg/day po, day 1, read-out: AUC0-t(last)) was 15.4 ± 9.28 µg·h/mL, the Cmax [2, 10] was 5230 ± 3280 ng/mL and the Tmax [2, 10] was 2.17 ± 0.98 h. For the same compound, the AUC(0-t) ([2]; Sprague-Dawley (Crl:CD (SD)IGS BR), 50 mg/kg/day, 50 mg/kg/day po, day 14, read-out: AUC0-t(last)) was 29.8 ± 19.4 µg·h/mL, the Cmax [2, 11] was 11400 ± 2170 ng/mL and the Tmax [2, 11] was 2.33 ± 0.82 h. The AUC(0-t) ([2]; both sexes, Sprague-Dawley (Crl:CD (SD)IGS BR), 200 mg/kg/day, 200 mg/kg/day po, day 1, read-out: AUC0-t(last)) was 85.9 ± 14.1 µg·h/mL, the Cmax [2, 12] was 15800 ± 3170 ng/mL and the Tmax [2, 12] was 3.33 ± 1.03 h. For the same compound, the AUC(0-t) ([2]; both sexes, Sprague-Dawley (Crl:CD (SD)IGS BR), 200 mg/kg/day, 200 mg/kg/day po, day 14, read-out: AUC0-t(last)) was 118 ± 38.9 µg·h/mL, the Cmax [2, 13] was 31700 ± 3740 ng/mL and the Tmax [2, 13] was 4.67 ± 1.63 h. For the same compound, the AUC(0-t) ([2]; both sexes, Sprague-Dawley (Crl:CD (SD)IGS BR), 800 mg/kg/day, 800 mg/kg/day po, day 1, read-out: AUC0-t(last)) was 410 ± 101 µg·h/mL, the Cmax [2, 14] was 25000 ± 8990 ng/mL and the Tmax [2, 14] was 2.67 ± 1.03 h. For the same compound, the AUC(0-t) ([2]; both sexes, Sprague-Dawley (Crl:CD (SD)IGS BR), 800 mg/kg/day, 800 mg/kg/day po, day 14, read-out: AUC0-t(last)) was 277 ± 160 µg·h/mL, the Cmax ([2]; female, Sprague Dawley (Crl:CD (SD)IGS BR), 50 mg/kg, Day 1, female) was 3890 ± 663 ng/mL and the AUC(0-t) ([2]; female, Sprague Dawley (Crl:CD (SD)IGS BR), 50 mg/kg, Day 1, female, read-out: AUC0-t(last)) was 23.2 ± 5.33 µg·h/mL. For the same compound, the Cmax ([2]; female, Sprague Dawley (Crl:CD (SD)IGS BR), 50 mg/kg/day, Day 28, female) was 11400 ± 6600 ng/mL, the AUC(0-t) ([2]; female, Sprague Dawley (Crl:CD (SD)IGS BR), 50 mg/kg/day, Day 28, female, read-out: AUC0-t(last)) was 78 ± 23.6 µg·h/mL and the Cmax ([2]; female, Sprague Dawley (Crl:CD (SD)IGS BR), 200 mg/kg, Day 1, female) was 12800 ± 1130 ng/mL. The AUC(0-t) ([2]; female, Sprague Dawley (Crl:CD (SD)IGS BR), 200 mg/kg, Day 1, female, read-out: AUC0-t(last)) was 91.4 ± 19.7 µg·h/mL, the Cmax ([2]; female, Sprague Dawley (Crl:CD (SD)IGS BR), 200 mg/kg/day, Day 28, female) was 22300 ± 1470 ng/mL and the AUC(0-t) ([2]; female, Sprague Dawley (Crl:CD (SD)IGS BR), 200 mg/kg/day, Day 28, female, read-out: AUC0-t(last)) was 153 ± 36.9 µg·h/mL. For the same compound, the Cmax ([2]; female, Sprague Dawley (Crl:CD (SD)IGS BR), 800 mg/kg, Day 1, female) was 30600 ± 2620 ng/mL, the AUC(0-t) ([2]; female, Sprague Dawley (Crl:CD (SD)IGS BR), 800 mg/kg, Day 1, female, read-out: AUC0-t(last)) was 453 ± 84.7 µg·h/mL and the Cmax ([2]; female, Sprague Dawley (Crl:CD (SD)IGS BR), 800 mg/kg/day, Day 28, female (n=2)) was 25800 ± 2050 ng/mL. It also gave an AUC(0-t) ([2]; female, Sprague Dawley (Crl:CD (SD)IGS BR), 800 mg/kg/day, Day 28, female (n=2), read-out: AUC0-t(last)) of 331 ± 57.3 µg·h/mL, a Cmax ([2]; male, Sprague Dawley (Crl:CD (SD)IGS BR), 50 mg/kg, Day 1, male) of 1500 ± 413 ng/mL and an AUC(0-t) ([2]; male, Sprague Dawley (Crl:CD (SD)IGS BR), 50 mg/kg, Day 1, male, read-out: AUC0-t(last)) of 7.66 ± 2.38 µg·h/mL. It also gave a Cmax ([2]; male, Sprague Dawley (Crl:CD (SD)IGS BR), 50 mg/kg/day, Day 28, male) of 4530 ± 664 ng/mL, an AUC(0-t) ([2]; male, Sprague Dawley (Crl:CD (SD)IGS BR), 50 mg/kg/day, Day 28, male, read-out: AUC0-t(last)) of 30.6 ± 10.9 µg·h/mL and a Cmax ([2]; male, Sprague Dawley (Crl:CD (SD)IGS BR), 200 mg/kg, Day 1, male) of 9990 ± 2130 ng/mL. For the same compound, the AUC(0-t) ([2]; male, Sprague Dawley (Crl:CD (SD)IGS BR), 200 mg/kg, Day 1, male, read-out: AUC0-t(last)) was 80.5 ± 4.31 µg·h/mL, the Cmax ([2]; male, Sprague Dawley (Crl:CD (SD)IGS BR), 200 mg/kg/day, Day 28, male) was 11600 ± 2400 ng/mL and the AUC(0-t) ([2]; male, Sprague Dawley (Crl:CD (SD)IGS BR), 200 mg/kg/day, Day 28, male, read-out: AUC0-t(last)) was 138 ± 45 µg·h/mL. For the same compound, the Cmax ([2]; male, Sprague Dawley (Crl:CD (SD)IGS BR), 800 mg/kg, Day 1, male) was 32800 ± 4950 ng/mL, the AUC(0-t) ([2]; male, Sprague Dawley (Crl:CD (SD)IGS BR), 800 mg/kg, Day 1, male, read-out: AUC0-t(last)) was 366 ± 113 µg·h/mL and the Cmax ([2]; male, Sprague Dawley (Crl:CD (SD)IGS BR), 800 mg/kg/day, Day 28, male) was 16600 ± 2080 ng/mL. For the same compound, the AUC(0-t) ([2]; male, Sprague Dawley (Crl:CD (SD)IGS BR), 800 mg/kg/day, Day 28, male, read-out: AUC0-t(last)) was 268 ± 64.1 µg·h/mL.
